Data reported in US9062124B2, “GIP-based mixed agonists for treatment of metabolic disorders and obesity” (priority 2008, dated 2015).
Where a SMILES comes first, the peptide text is derived from it. [ ]: non-standard residue; d: D form. Aib = CC(C)(N)C(=O)O

How the values were obtained:
Type in all cases: cell-based
[1] = target: T1, GLP-1 receptor (Homo sapiens, UniProt P43220); test: cAMP synthesis functional assay (firefly luciferase reporter in HEK293 cells), GLP-1 receptor
T1 construct: expressed in transfected cells; host or cells: HEK293
T1 sequence (P43220 24-463, species assumed): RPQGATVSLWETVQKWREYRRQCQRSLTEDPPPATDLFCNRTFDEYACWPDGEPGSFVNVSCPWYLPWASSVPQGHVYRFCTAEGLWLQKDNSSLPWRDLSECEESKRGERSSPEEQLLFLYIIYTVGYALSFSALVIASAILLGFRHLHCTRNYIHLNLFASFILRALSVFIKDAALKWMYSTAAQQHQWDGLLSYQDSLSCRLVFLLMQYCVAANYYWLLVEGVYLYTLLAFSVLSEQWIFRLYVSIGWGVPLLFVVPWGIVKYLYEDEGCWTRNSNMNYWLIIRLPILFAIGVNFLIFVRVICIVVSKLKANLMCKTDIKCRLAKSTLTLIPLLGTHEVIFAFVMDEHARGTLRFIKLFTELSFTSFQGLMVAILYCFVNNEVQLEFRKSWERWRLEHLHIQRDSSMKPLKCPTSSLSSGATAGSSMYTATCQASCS

[2] = target: T2, GIP receptor (Homo sapiens, UniProt P48546); test: cAMP synthesis functional assay (firefly luciferase reporter in HEK293 cells), GIP receptor
T2 construct: expressed in transfected cells; host or cells: HEK293
T2 sequence (P48546 22-466): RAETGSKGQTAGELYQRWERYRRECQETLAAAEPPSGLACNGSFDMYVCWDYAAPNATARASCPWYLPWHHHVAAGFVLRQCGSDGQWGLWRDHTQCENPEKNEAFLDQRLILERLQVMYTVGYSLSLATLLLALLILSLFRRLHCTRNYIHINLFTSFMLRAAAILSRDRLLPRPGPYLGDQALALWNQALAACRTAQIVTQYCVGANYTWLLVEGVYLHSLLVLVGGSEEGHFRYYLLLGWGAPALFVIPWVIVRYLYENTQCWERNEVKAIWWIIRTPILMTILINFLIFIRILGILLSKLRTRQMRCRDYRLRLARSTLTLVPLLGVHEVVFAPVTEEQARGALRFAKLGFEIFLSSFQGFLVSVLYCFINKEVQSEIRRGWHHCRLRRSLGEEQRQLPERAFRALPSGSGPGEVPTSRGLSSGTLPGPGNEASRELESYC

[3] = target: T3, glucagon receptor (Homo sapiens, UniProt P47871); test: cAMP synthesis functional assay (firefly luciferase reporter in HEK293 cells), glucagon receptor
T3 construct: expressed in transfected cells; host or cells: HEK293
T3 sequence (P47871 26-477): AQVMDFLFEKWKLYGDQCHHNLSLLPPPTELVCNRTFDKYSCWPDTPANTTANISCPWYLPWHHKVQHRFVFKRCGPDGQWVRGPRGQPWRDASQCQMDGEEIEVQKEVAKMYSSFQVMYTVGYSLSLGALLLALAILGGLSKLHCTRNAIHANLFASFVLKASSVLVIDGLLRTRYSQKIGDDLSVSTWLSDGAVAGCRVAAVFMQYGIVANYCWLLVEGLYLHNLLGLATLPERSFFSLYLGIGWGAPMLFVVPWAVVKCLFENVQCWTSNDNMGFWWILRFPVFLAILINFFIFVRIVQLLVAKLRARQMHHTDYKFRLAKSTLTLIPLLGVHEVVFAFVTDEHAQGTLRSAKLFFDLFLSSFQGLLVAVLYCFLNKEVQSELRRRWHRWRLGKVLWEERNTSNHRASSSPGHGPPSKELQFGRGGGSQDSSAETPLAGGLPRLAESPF

[4] = Table 1, relative to the native hormone of the indicated receptor
[5] = Table 4, relative to the native hormone

| GLP-1 Receptor relative activity [1, 4] | GIP Receptor relative activity [2, 4] | Glucagon Receptor relative activity [3, 4] | Structure (SMILES) | GLP-1 Receptor relative activity [1, 5] | GIP Receptor relative activity [2, 5] | Glucagon Receptor relative activity [3, 5] |
| --- | --- | --- | --- | --- | --- | --- |
| 0.00% | 100.00% | 0.00% | CC[C@H](C)[C@H](NC(=O)[C@H](CO)NC(=O)[C@H](Cc1ccc(O)cc1)NC(=O)[C@H](CC(=O)O)NC(=O)[C@H](CO)NC(=O)[C@@H](NC(=O)[C@H](Cc1ccccc1)NC(=O)[C@@H](NC(=O)CNC(=O)[C@H](CCC(=O)O)NC(=O)[C@H](C)NC(=O)[C@@H](N)Cc1ccc(O)cc1)[C@@H](C)O)[C@@H](C)CC)C(=O)N[C@@H](C)C(=O)N[C@@H](CCSC)C(=O)N[C@@H](CC(=O)O)C(=O)N[C@@H](CCCCN)C(=O)N[C@H](C(=O)N[C@@H](Cc1c[nH]cn1)C(=O)N[C@@H](CCC(N)=O)C(=O)N[C@@H](CCC(N)=O)C(=O)N[C@@H](CC(=O)O)C(=O)N[C@@H](Cc1ccccc1)C(=O)N[C@H](C(=O)N[C@@H](CC(N)=O)C(=O)N[C@@H](Cc1c[nH]c2ccccc12)C(=O)N[C@@H](CC(C)C)C(=O)N[C@@H](CC(C)C)C(=O)N[C@@H](C)C(=O)N[C@@H](CCC(N)=O)C(=O)N[C@@H](CCCCN)C(=O)NCC(=O)N[C@@H](CCCCN)C(=O)N[C@@H](CCCCN)C(=O)N[C@@H](CC(N)=O)C(=O)N[C@@H](Cc1c[nH]c2ccccc12)C(=O)N[C@@H](CC(C)C)C(=O)N[C@@H](CCCCN)C(=O)N[C@@H](Cc1c[nH]cn1)C(=O)N[C@@H](CC(N)=O)C(=O)N[C@H](C(=O)N[C@H](C(=O)N[C@@H](CCC(N)=O)C(N)=O)[C@@H](C)O)[C@@H](C)CC)C(C)C)[C@@H](C)CC [mt-99] |  |  |  |
|  |  |  | CC[C@H](C)[C@H](NC(=O)[C@H](CO)NC(=O)[C@H](Cc1ccc(O)cc1)NC(=O)[C@H](CC(=O)O)NC(=O)[C@H](CO)NC(=O)[C@@H](NC(=O)[C@H](Cc1ccccc1)NC(=O)[C@@H](NC(=O)CNC(=O)[C@H](CCC(N)=O)NC(=O)C(C)(C)NC(=O)[C@@H](N)Cc1ccc(O)cc1)[C@@H](C)O)[C@@H](C)CC)C(=O)N[C@@H](Cc1ccc(O)cc1)C(=O)N[C@@H](CC(C)C)C(=O)N[C@@H](CC(=O)O)C(=O)N[C@@H](CCCCN)C(=O)N[C@@H](CCC(N)=O)C(=O)N[C@@H](C)C(=O)N[C@@H](C)C(=O)NC(C)(C)C(=O)N[C@@H](CCC(=O)O)C(=O)N[C@@H](Cc1ccccc1)C(=O)N[C@H](C(=O)N[C@@H](CC(N)=O)C(=O)N[C@@H](Cc1c[nH]c2ccccc12)C(=O)N[C@@H](CC(C)C)C(=O)N[C@@H](CC(C)C)C(=O)N[C@@H](C)C(=O)NCC(=O)NCC(=O)N1CCC[C@H]1C(=O)N[C@@H](CO)C(=O)N[C@@H](CO)C(=O)NCC(=O)N[C@@H](C)C(=O)N1CCC[C@H]1C(=O)N1CCC[C@H]1C(=O)N1CCC[C@H]1C(=O)N[C@@H](CO)C(=O)N[C@@H](CCCCN)C(N)=O)C(C)C [mt-357] (H-Y[Aib]QGTFISDYSIYLDKQAA[Aib]EFVNWLLAGGPSSGAPPPSK-NH2; N-terminus assumed) | 0.86% | 206.37% | 260.92% |
